{"source": "patent US9126983B2", "about": "“Extracts from kibdelos porangium as antibacterial agents” (Merck Sharp & Dohme Corp., priority 2009, dated 2015)", "key": {"[1]": {"test_system": "Bacillus subtilis (MB964)", "test": "Microbroth dilution MIC, Bacillus subtilis", "assay_type": "cell-based", "settings": "cation-adjusted Mueller Hinton broth, no visible growth; for MIC: read-out: MIC-100", "source_text": "(§1) Selected isolates were subcultured onto either […] […] Isolates were subcultured twice before assay. […] Plates were read to no growth."}, "[2]": {"test_system": "Staphylococcus aureus (MB2865)", "test": "Microbroth dilution MIC, Staphylococcus aureus MB2865", "assay_type": "cell-based", "settings": "cation-adjusted Mueller Hinton broth, no visible growth", "source_text": "The Staphylococcus aureus strains used were obtained from the Merck Culture Collection, and are identified as MB2865 and MB5957. […] Selected isolates were subcultured onto either […] Isolates were subcultured twice before assay. […] Plates were read to no growth."}, "[3]": {"test_system": "Haemophilus influenzae (MB4572)", "test": "Microbroth dilution MIC, Haemophilus influenzae", "assay_type": "cell-based", "settings": "Haemophilus test medium; for MIC: read-out: MIC-100", "source_text": "The strain of Haemophilus influenzae is a mouse pathogen used for in vivo testing at Merck. Selected isolates were subcultured onto either […] […] Isolates were subcultured twice before assay. […] Plates were read to no growth."}, "[4]": {"test_system": "Streptococcus pneumoniae (CL2883)", "test": "Microbroth dilution MIC, Streptococcus pneumoniae", "assay_type": "cell-based", "settings": "cation-adjusted Mueller Hinton broth + lysed horse blood"}, "[5]": {"test_system": "Enterococcus faecalis (CL8516)", "test": "Microbroth dilution MIC, Enterococcus faecalis", "assay_type": "cell-based", "settings": "cation-adjusted Mueller Hinton broth, no visible growth"}, "[6]": {"test_system": "Escherichia coli envA1 tolC (MB5746)", "settings": "cell-wall permeable strain, cation-adjusted Mueller Hinton broth"}, "[7]": {"test_system": "Candida albicans (MY1055)", "test": "Microbroth dilution MIC, Candida albicans control", "assay_type": "cell-based", "settings": "Candida albicans (MY1055) control strain, RPMI 1640; for MIC: read-out: MIC-100", "source_text": "as §1"}, "[8]": {"test_system": "Clostridium difficile (ATCC 43596)", "test": "Agar dilution MIC, Clostridium difficile ATCC 43596", "assay_type": "cell-based", "settings": "Clostridioides difficile, ATCC43596, 48 h", "description": "(§2) Drug dilutions and drug-supplemented agar plates were prepared manually.\n(§3) The growth and test media were those recommended by the Clinical and Laboratory Standards Institute (CLSI) for growth and susceptibility testing of anaerobes. See Clinical and Laboratory Standards Institute (CLSI). Methods for Antimicrobial Susceptibility Testing of Anaerobic Bacteria; Approved Standard—Seventh Edition. CLSI document M11-A7 [ISBN1-56238-626-3]. Clinical and Laboratory Standards Institute, 940 West Valley Road, Suite 1400, Wayne, Pa. 19087-1898 USA, 2007.\n(§4) This medium is referred to as Supplemented Brucella Agar (SBA).\n(§5) The media were prepared as follows: Brucella agar was weighed and water was added to the final volume minus the volume of the hemin, vitamin K, and lysed sheep blood. The agar was dissolved by boiling. Hemin (5 μg/ml) and vitamin K (1 μg/ml) were added to the agar and it was autoclaved for 23 minutes at 121° C. The agar was allowed to cool to 50° C. and 18.5 ml was dispensed into sterile glass tubes. Immediately prior to pouring the plates 1 ml of lysed sheep blood and 0.5 ml of the appropriate drug dilution were added to the tube. The contents of the tube were gently mixed by inverting the tube, and the drug-supplemented agar was poured into a petri dish. […]\n(§6) The inocula for the MIC assay were prepared inside the Bactron II anaerobe chamber, as follows. […] The MIC was read per CLSI guidelines."}, "[9]": {"test_system": "Clostridium difficile (ATCC 700057)", "test": "Agar dilution MIC, Clostridium difficile ATCC 700057", "assay_type": "cell-based", "settings": "Clostridioides difficile", "description": "as §2, §3, §4, §5, §6"}, "[10]": {"test_system": "Escherichia coli envA1 tolC (MB5746)", "test": "microbe, parasite or virus in culture", "settings": "read-out: MIC-100"}, "[11]": {"test_system": "Clostridium difficile (ATCC 700057)", "settings": "published CLSI quality control range; cited from earlier work"}}, "note": "Where two headings read alike, the source gives them in different places.", "data": [{"compound": "CC1(C)S[C@@H]2[C@H](NC(=O)Cc3ccccc3)C(=O)N2[C@H]1C(=O)O", "note": "[Penicillin G]", "values": [{"measurement": "MIC-100", "setting": "[1]", "value": "<0.06", "unit": "µg/mL"}, {"measurement": "MIC-100", "setting": "[2]", "value": "<0.06", "unit": "µg/mL"}, {"measurement": "MIC-100", "setting": "[3]", "value": 0.25, "unit": "µg/mL"}, {"measurement": "MIC-100", "setting": "[4]", "value": "<0.06", "unit": "µg/mL"}, {"measurement": "MIC-100", "setting": "[5]", "value": 0.5, "unit": "µg/mL"}, {"measurement": "MIC-100", "setting": "[6]", "value": 8, "unit": "µg/mL"}, {"measurement": "MIC-100", "setting": "[7]", "value": ">64", "unit": "µg/mL"}]}, {"compound": "Cc1ncc([N+](=O)[O-])n1CCO", "note": "[Metronidazole]", "values": [{"measurement": "MIC", "setting": "[8]", "value": 0.25, "unit": "µg/mL"}, {"measurement": "MIC", "setting": "[9]; ATCC700057, Clostridium difficile (ATCC 700057), agar dilution, Supplemented Brucella Agar, anaerobic, 35° C., 48 h, read-out: MIC", "value": 0.25, "unit": "µg/mL"}]}, {"compound": "CC[C@H]1OC(=O)[C@H](C)[C@@H](O[C@H]2C[C@@](C)(OC)[C@@H](O)[C@H](C)O2)[C@H](C)[C@@H](O[C@@H]2O[C@H](C)C[C@H](N(C)C)[C@H]2O)[C@](C)(OC)C[C@@H](C)C(=O)[C@H](C)[C@@H](O)[C@]1(C)O", "note": "[Clarithromycin]", "values": [{"measurement": "MIC", "setting": "[1]", "value": 0.06, "unit": "µg/mL"}, {"measurement": "MIC", "setting": "[10]", "value": 0.12, "unit": "µg/mL"}, {"measurement": "MIC", "setting": "[2]; read-out: MIC-100", "value": 0.12, "unit": "µg/mL"}, {"measurement": "MIC", "setting": "[3]", "value": 4, "unit": "µg/mL"}, {"measurement": "MIC", "setting": "[4]; read-out: MIC-100", "value": 0.03, "unit": "µg/mL"}, {"measurement": "MIC", "setting": "[5]; read-out: MIC-100", "value": 2, "unit": "µg/mL"}, {"measurement": "MIC", "setting": "[7]", "value": "> 16", "unit": "µg/mL"}]}, {"compound": "CN[C@H](CC(C)C)C(=O)N[C@H]1C(=O)N[C@@H](CC(N)=O)C(=O)N[C@H]2C(=O)N[C@H]3C(=O)N[C@H](C(=O)N[C@H](C(=O)O)c4cc(O)cc(O)c4-c4cc3ccc4O)[C@H](O)c3ccc(c(Cl)c3)Oc3cc2cc(c3O[C@@H]2O[C@H](CO)[C@@H](O)[C@H](O)[C@H]2O[C@H]2C[C@](C)(N)[C@H](O)[C@H](C)O2)Oc2ccc(cc2Cl)[C@H]1O", "note": "[Vancomycin, vancomycin]", "values": [{"measurement": "MIC", "setting": "[8]", "value": 1, "unit": "µg/mL"}, {"measurement": "MIC", "setting": "[9]; ATCC700057, 48 h", "value": 2, "unit": "µg/mL"}, {"measurement": "CLSI quality control range (MIC)", "setting": "[11]", "value": "2 (0.5-4)^1 μg/mL"}]}, {"compound": "O=C(O)c1cn(C2CC2)c2cc(N3CCNCC3)c(F)cc2c1=O", "note": "[Ciprofloxacin]", "values": [{"measurement": "MIC", "setting": "[1]", "value": 0.06, "unit": "µg/mL"}, {"measurement": "MIC", "setting": "[3]", "value": "< 0.015", "unit": "µg/mL"}, {"measurement": "MIC", "setting": "[7]", "value": "> 16", "unit": "µg/mL"}]}]}
